Tested on: Human dermal fibroblasts
Experiment: Hyaluronic Acid (HA) Secretion (Assay 4, ELISA)
Assay type: cell-based
Conditions: 20 ng/ml (positive control), 48 hours post-treatment
Protocol: Human dermal fibroblasts were maintained in flask in growth medium consisting of DMEM plus 10% fetal bovine serum, 50 units/ml penicillin and 50 μg/ml streptomycin. Cells were seeded at 10,000 cells per well in a 96 well plate. After 24 hours incubation, cells were treated with test articles dissolved in DMSO or DMSO without extracts (as control) prepared in DMEM+2% FBS. Culture media was collected at 48 hours post-treatment, and measured for HA (Hyaluronic acid) secretion using Hyaluronan ELISA kit (Echelon, cat. #K-1200) following the manufacturer protocol. To assess activity, the colorimetric chance was measured at 405 nm and the results expressed as a fold change over untreated controls.

TGF-b was tested. Which “HA secretion Fold Change” value did it give?
Its value is 2.54 fold.

Source: patent US20150024072A1, “METHODS OF TREATING A SKIN CONDITION WITH MALVA NEGLECTA” (Johnson & Johnson Consumer Companies, Inc., priority 2013, published 2015)
